The record followed here is patent US9663473B2 (Actelion Pharmaceuticals Ltd, priority 2013, dated 2017).

The assay deals with T1, recombinant human ALX receptor (Homo sapiens, UniProt P25090).
T1 construct: expressed in transfected cells; host or cells: HEK293 (HEK293-hALXR-Gα16)
T1 sequence (P25090 1-351): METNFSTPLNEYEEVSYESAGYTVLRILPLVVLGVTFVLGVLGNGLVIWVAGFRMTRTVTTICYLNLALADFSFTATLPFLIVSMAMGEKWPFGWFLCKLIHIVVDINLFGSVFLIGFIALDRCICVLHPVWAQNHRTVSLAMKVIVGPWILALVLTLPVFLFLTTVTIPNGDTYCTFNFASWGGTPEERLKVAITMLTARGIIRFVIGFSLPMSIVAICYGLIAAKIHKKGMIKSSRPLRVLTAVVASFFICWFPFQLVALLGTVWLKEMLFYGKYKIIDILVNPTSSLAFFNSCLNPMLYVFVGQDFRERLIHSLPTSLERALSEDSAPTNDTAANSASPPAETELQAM
The assay can be described thus: Intracellular calcium measurements (FLIPR), ALX receptor agonistic activity. The class given is cell-based. Particulars: HEK293-hALXR-Gα16 cells, Fluo-4 calcium signal, normalized to WKYMVm 10 nM. Summed up:
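Agonist-induced calcium flux was read by FLIPR (488/540 nm) as baseline-subtracted peak emission, expressed relative to WKYMVm at 10 nM final. Cells used: HEK293-hALXR-Gα16, dye-loaded 60 min at 37° C. with 1 μM Fluo-4 AM before compound dose-response addition.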
On the technique in general: A change in cytosolic calcium serves as a functional read-out for many receptors and channels.

Usually EC50 stands for the midpoint of the concentration-response curve. As for `COc1ccc(C[C@@H](NC(=O)NC2(c3ccc(C)cc3)CC2)c2nc3ccccc3[nH]2)cc1` [Example 277, (R)-1-(1-(1H-Benzo[d]imidazol-2-yl)-2-(4-methoxyphenyl)ethyl)-3-(1-(p-tolyl)cyclopropyl)urea], the EC50 was determined as 82 nM. To `COc1ccc(C[C@@H](NC(=O)NCC2(c3ccccc3)CCCCC2)c2nc3ccccc3[nH]2)cc1` [Example 278, (R)-1-(1-(1H-Benzo[d]imidazol-2-yl)-2-(4-methoxyphenyl)ethyl)-3-((1-phenylcyclohexyl)methyl)urea] belongs 51 nM; to `CCC(NC(=O)N[C@H](Cc1ccc(OC)cc1)c1nc2ccccc2[nH]1)c1ccccc1` (stereo partly drawn) [Example 279, 1-((R)-1-(1H-Benzo[d]imidazol-2-yl)-2-(4-methoxyphenyl)ethyl)-3-(1-phenylpropyl)urea], 40 nM; to `COc1ccc(C[C@@H](NC(=O)NCCc2cccnc2)c2nc3ccccc3[nH]2)cc1` [Example 280, (R)-1-(1-(1H-Benzo[d]imidazol-2-yl)-2-(4-methoxyphenyl)ethyl)-3-(2-(pyridin-3-yl)ethyl)urea], 250 nM. As for `COc1ccc(C[C@@H](NC(=O)NC[C@@H](O)c2ccccc2)c2nc3ccccc3[nH]2)cc1` [Example 281, 1-((R)-1-(1H-Benzo[d]imidazol-2-yl)-2-(4-methoxyphenyl)ethyl)-3-((S)-2-hydroxy-2-phenylethyl)urea], the EC50 was determined as 105 nM. Take `COc1ccc(C[C@@H](NC(=O)NCC2COc3cnccc32)c2nc3ccccc3[nH]2)cc1` (stereo partly drawn) [Example 282, 1-((R)-1-(1H-Benzo[d]imidazol-2-yl)-2-(4-methoxyphenyl)ethyl)-3-((2,3-dihydrofuro[2,3-c]pyridin-3-yl)methyl)urea]: the EC50 worked out at 351 nM. With `COc1ccc(C[C@@H](NC(=O)NC2(c3cccc(Cl)c3)CC2)c2nc3ccccc3[nH]2)cc1` [Example 283, (R)-1-(1-(1H-Benzo[d]imidazol-2-yl)-2-(4-methoxyphenyl)ethyl)-3-(1-(3-chlorophenyl)cyclopropyl)urea], the EC50 was 295 nM.

As for `COc1ccc(C[C@@H](NC(=O)NCc2ccn(-c3ccccc3)n2)c2nc3ccccc3[nH]2)cc1` [Example 284, (R)-1-(1-(1H-Benzo[d]imidazol-2-yl)-2-(4-methoxyphenyl)ethyl)-3-((1-phenyl-1H-pyrazol-3-yl)methyl)urea], the EC50 came to 353 nM.

With `COc1ccc(C[C@@H](NC(=O)NCCc2cnccn2)c2nc3ccccc3[nH]2)cc1` [Example 285, (R)-1-(1-(1H-Benzo[d]imidazol-2-yl)-2-(4-methoxyphenyl)ethyl)-3-(2-(pyrazin-2-yl)ethyl)urea], the EC50 was found to be 284 nM. `COc1ccc(C[C@@H](NC(=O)NCCN2CCc3ccccc32)c2nc3ccccc3[nH]2)cc1` [Example 286, (R)-1-(1-(1H-Benzo[d]imidazol-2-yl)-2-(4-methoxyphenyl)ethyl)-3-(2-(indolin-1-yl)ethyl)urea]: the half-maximal effective concentration (EC50) came to 102 nM. Consider `COc1ccc(C[C@@H](NC(=O)NCc2ncccc2C)c2nc3ccccc3[nH]2)cc1` [Example 287, (R)-1-(1-(1H-Benzo[d]imidazol-2-yl)-2-(4-methoxyphenyl)ethyl)-3-((3-methylpyridin-2-yl)methyl)urea], for which the concentration giving a half-maximal response (EC50) was determined as 92 nM. As for `COc1ccc(C[C@@H](NC(=O)NCc2ccncc2)c2nc3ccccc3[nH]2)cc1` [Example 288, (R)-1-(1-(1H-Benzo[d]imidazol-2-yl)-2-(4-methoxyphenyl)ethyl)-3-(pyridin-4-ylmethyl)urea], the concentration for a half-maximal effect (EC50) came out at 853 nM. Take `CCn1ccc(C(C)NC(=O)N[C@H](Cc2ccc(OC)cc2)c2nc3ccccc3[nH]2)n1` (stereo partly drawn) [Example 289, 1-((R)-1-(1H-Benzo[d]imidazol-2-yl)-2-(4-methoxyphenyl)ethyl)-3-(1-(1-ethyl-1H-pyrazol-3-yl)ethyl)urea]: the EC50 was determined as 59 nM. As to `COc1ccc(C[C@@H](NC(=O)NC[C@H](O)c2ccccc2)c2nc3ccccc3[nH]2)cc1` [Example 290, 1-((R)-1-(1H-Benzo[d]imidazol-2-yl)-2-(4-methoxyphenyl)ethyl)-3-((R)-2-hydroxy-2-phenylethyl)urea], the EC50 came out at 37 nM. As for `COc1ccc(C[C@@H](NC(=O)NCc2ncc(Br)cc2F)c2nc3ccccc3[nH]2)cc1` [Example 291, (R)-1-(1-(1H-Benzo[d]imidazol-2-yl)-2-(4-methoxyphenyl)ethyl)-3-((5-bromo-3-fluoropyridin-2-yl)methyl)urea], the half-maximal effective concentration (EC50) worked out at 439 nM. Regarding `COc1ccc(C[C@@H](NC(=O)NC(c2ccccn2)C(F)(F)F)c2nc3ccccc3[nH]2)cc1` (stereo partly drawn) [Example 292, 1-((R)-1-(1H-Benzo[d]imidazol-2-yl)-2-(4-methoxyphenyl)ethyl)-3-(2,2,2-trifluoro-1-(pyridin-2-yl)ethyl)urea], the 50% effective concentration (EC50) stood at 81 nM. With `COc1ccc(C[C@@H](NC(=O)NCc2ccn(CC(F)(F)F)n2)c2nc3ccccc3[nH]2)cc1` [Example 293, (R)-1-(1-(1H-Benzo[d]imidazol-2-yl)-2-(4-methoxyphenyl)ethyl)-3-((1-(2,2,2-trifluoroethyl)-1H-pyrazol-3-yl)methyl)urea], the EC50 amounted to 168 nM. Regarding `COc1ccc(C[C@@H](NC(=O)NCc2ccnn2-c2ccc(OC)cc2)c2nc3ccccc3[nH]2)cc1` [Example 294, (R)-1-(1-(1H-Benzo[d]imidazol-2-yl)-2-(4-methoxyphenyl)ethyl)-3-((1-(4-methoxyphenyl)-1H-pyrazol-5-yl)methyl)urea], the concentration giving a half-maximal response (EC50) is 7.6 nM.

With `COc1ccc(C[C@@H](NC(=O)NCCc2ccncc2)c2nc3ccccc3[nH]2)cc1` [Example 295, (R)-1-(1-(1H-Benzo[d]imidazol-2-yl)-2-(4-methoxyphenyl)ethyl)-3-(2-(pyridin-4-yl)ethyl)urea], the half-maximal effective concentration (EC50) amounted to 645 nM.

As for `COc1ccc(C[C@@H](NC(=O)NCCc2ccc(OC)cn2)c2nc3ccccc3[nH]2)cc1` [Example 296, (R)-1-(1-(1H-Benzo[d]imidazol-2-yl)-2-(4-methoxyphenyl)ethyl)-3-(2-(5-methoxypyridin-2-yl)ethyl)urea], the EC50 amounted to 227 nM. With `COc1ccc(C[C@@H](NC(=O)NCCN2CCc3ccccc3C2)c2nc3ccccc3[nH]2)cc1` [Example 297, (R)-1-(1-(1H-Benzo[d]imidazol-2-yl)-2-(4-methoxyphenyl)ethyl)-3-(2-(3,4-dihydroisoquinolin-2(1H)-yl)ethyl)urea] the figure was 217 nM; with `COc1ccc(C[C@@H](NC(=O)NCc2nn(C)c3ccccc23)c2nc3ccccc3[nH]2)cc1` [Example 298, (R)-1-(1-(1H-Benzo[d]imidazol-2-yl)-2-(4-methoxyphenyl)ethyl)-3-((1-methyl-1H-indazol-3-yl)methyl)urea], 203 nM; with `COc1ccc(C[C@@H](NC(=O)NCCc2ccc3c(c2)OCO3)c2nc3ccccc3[nH]2)cc1` [Example 299, (R)-1-(1-(1H-Benzo[d]imidazol-2-yl)-2-(4-methoxyphenyl)ethyl)-3-(2-(benzo[d][1,3]dioxol-5-yl)ethyl)urea], 167 nM. Regarding `COc1ccc(C[C@@H](NC(=O)NCCc2ccc(F)c(F)c2)c2nc3ccccc3[nH]2)cc1` [Example 300, (R)-1-(1-(1H-Benzo[d]imidazol-2-yl)-2-(4-methoxyphenyl)ethyl)-3-(3,4-difluorophenethyl)urea], the half-maximal effective concentration (EC50) turned out to be 82 nM.

In the case of `COc1ccc(C[C@@H](NC(=O)N[C@H](C)c2ccc(C)cc2)c2nc3ccccc3[nH]2)cc1` [Example 301, 1-((R)-1-(1H-Benzo[d]imidazol-2-yl)-2-(4-methoxyphenyl)ethyl)-3-((R)-1-(p-tolyl)ethyl)urea], the EC50 is 66 nM. In the case of `COc1ccc(C[C@@H](NC(=O)NCCc2ccc(Cl)cc2)c2nc3ccccc3[nH]2)cc1` [Example 302, (R)-1-(1-(1H-Benzo[d]imidazol-2-yl)-2-(4-methoxyphenyl)ethyl)-3-(4-chlorophenethyl)urea], the half-maximal effective concentration (EC50) was determined as 129 nM. `COc1ccc(C[C@@H](NC(=O)NCc2cc(Cl)ccc2Cl)c2nc3ccccc3[nH]2)cc1` [Example 303, (R)-1-(1-(1H-Benzo[d]imidazol-2-yl)-2-(4-methoxyphenyl)ethyl)-3-(2,5-dichlorobenzyl)urea]: the EC50 worked out at 426 nM. Regarding `COc1ccc(C[C@@H](NC(=O)NCc2c(Cl)cccc2Cl)c2nc3ccccc3[nH]2)cc1` [Example 304, (R)-1-(1-(1H-Benzo[d]imidazol-2-yl)-2-(4-methoxyphenyl)ethyl)-3-(2,6-dichlorobenzyl)urea], the EC50 worked out at 141 nM.

With `COc1ccc(C[C@@H](NC(=O)NCC2CCCc3ccccc32)c2nc3ccccc3[nH]2)cc1` (stereo partly drawn) [Example 305, 1-((R)-1-(1H-Benzo[d]imidazol-2-yl)-2-(4-methoxyphenyl)ethyl)-3-((1,2,3,4-tetrahydronaphthalen-1-yl)methyl)urea], the EC50 was 80 nM. For the compound `COc1ccc(C[C@@H](NC(=O)NCCc2cc(C)ccc2C)c2nc3ccccc3[nH]2)cc1` [Example 306, (R)-1-(1-(1H-Benzo[d]imidazol-2-yl)-2-(4-methoxyphenyl)ethyl)-3-(2,5-dimethylphenethyl)urea], the half-maximal effective concentration (EC50) stood at 60 nM. Turning to `COc1ccc(C[C@@H](NC(=O)NCc2cccc(Cl)c2Cl)c2nc3ccccc3[nH]2)cc1` [Example 307, (R)-1-(1-(1H-Benzo[d]imidazol-2-yl)-2-(4-methoxyphenyl)ethyl)-3-(2,3-dichlorobenzyl)urea], the concentration for a half-maximal effect (EC50) was determined as 50 nM.
